{"source": "patent US20150141414A1", "about": "“Formulation of Stable Recombinant Alpha-Fetoprotein Conjugated with Anti-Tumor Substance in Target-Delivery System for Treatment of Cancer and Autoimmune Disease” (priority 2013, published 2015)", "key": {"rat": {"system": "rat", "details": "cited from earlier work"}, "mouse": {"system": "mouse", "details": "cited from earlier work"}, "cat": {"system": "cat", "details": "cited from earlier work"}, "[1]": {"system": "Hela cervical cancer cells", "assay": "MTT cytotoxicity assay, Hela cervical cancer cells", "type": "cell-based", "details": "Homo sapiens, mean of three determinations, read-out: 50% growth inhibition concentration (1050)", "protocol": "The cytotoxicity of dactinomycin incorporated in PLGA conjugated with rAFP was tested with Hela cervical cancer cells. It is recognized that the use of PLGA as the controlled release polymer system is particularly suitable for the intent of the present invention because PLGA is well known for its safety in clinic. The Hela cells were doused with both dactinomycin in bulk. MTT assay was then performed to quantify the inhibitory concentration. […] 1050 was calculated from the cell viability data as the drug concentration in which cell growth was inhibited by 50%."}, "[2]": {"system": "lymphocyte of an average healthy person", "assay": "Dose-dependent survival of lymphocytes of a healthy person", "type": "cell-based", "details": "Homo sapiens, read-out: 50% growth inhibition concentration", "description": "Each value depicted in FIGS. 1A and 1B is the mean of three determinations with coefficient of variation less than 20%."}, "pigeon": {"system": "pigeon", "details": "intravenous injection; cited from earlier work"}, "frog": {"system": "frog", "details": "intravenous injection; cited from earlier work"}}, "note": "Where two headings read alike, the source gives them in different places. Starred links: 1 amine or outer side, 2 acyl side, 3 side chain; linkers in the order of their positions; H or OH if unused. Positions of bridges follow the written chain, without caps; N, C: chain ends. Non-standard residues stand in square brackets, D forms with d. Residues, ends and D or L forms follow the SMILES beside them. Chains are numbered I, II in the order given. Actinocin(9to1) = Cc1c2oc3c(C)ccc(C(=O)[*:1])c3nc-2c(C(=O)[*:2])c(N)c1=O; NMeV = CN[C@H](C(=O)O)C(C)C; Sar = CNCC(=O)O", "data": [{"smiles": "CN(Cc1cnc2nc(N)nc(N)c2n1)c1ccc(C(=O)N[C@@H](CCC(=O)O)C(=O)O)cc1", "note": "[methotrexate]", "values": [{"measurement": "LD50 intravenous", "setting": "rat; rats, intravenous", "value": 14, "unit": "mg/kg body weight"}]}, {"smiles": "C[C@]12CC[C@H](O)C[C@H]1CC[C@@H]1[C@@H]2CC[C@]2(C)[C@@H](c3ccc(=O)oc3)CC[C@]12O", "note": "[bufalin]", "values": [{"measurement": "LD50 intravenous", "setting": "mouse; mouse, intravenous", "value": 0.74, "unit": "mg/kg"}, {"measurement": "LD50 intravenous", "setting": "cat", "value": 0.14, "unit": "mg/kg"}]}, {"smiles": "Cc1c2oc3c(C)ccc(C(=O)N[C@@H]4C(=O)N[C@H](C(C)C)C(=O)N5CCC[C@H]5C(=O)N(C)CC(=O)N(C)[C@@H](C(C)C)C(=O)O[C@@H]4C)c3nc-2c(C(=O)N[C@@H]2C(=O)N[C@H](C(C)C)C(=O)N3CCC[C@H]3C(=O)N(C)CC(=O)N(C)[C@@H](C(C)C)C(=O)O[C@@H]2C)c(N)c1=O", "note": "[dactinomycin in bulk, Dactinomycin] (I: T[dV]P[Sar][NMeV] / II: T[dV]P[Sar][NMeV]; ester I:1-I:C, II:1-II:C; linker I:N-II:N via Actinocin(9to1))", "values": [{"measurement": "IC50", "setting": "[1]", "value": 1.7, "unit": "nM"}, {"measurement": "IC50", "setting": "[2]", "value": 23.8, "unit": "nM"}, {"measurement": "lethal dose as multiple of maximum recommended daily human dose (body surface area basis)", "setting": "mouse; mice, intravenous 700 mcg/kg", "value": 3.8, "unit": "times"}, {"measurement": "lethal intravenous dose", "setting": "mouse; mice, intravenous", "value": 0.7, "unit": "mg/kg"}, {"measurement": "oral LD50", "setting": "mouse; mouse, oral", "value": 7.8, "unit": "mg/kg"}, {"measurement": "oral LD50", "setting": "rat; rat, oral", "value": 7.2, "unit": "mg/kg"}, {"measurement": "lethal dose as multiple of maximum recommended daily human dose (body surface area basis)", "setting": "rat; rats, intravenous 500 mcg/kg", "value": 5.4, "unit": "times"}, {"measurement": "lethal intravenous dose", "setting": "rat; rats, intravenous", "value": 0.5, "unit": "mg/kg"}]}, {"smiles": "COc1cc2c(Nc3ccc(Br)cc3F)ncnc2cc1OCC1CCN(C)CC1", "note": "[vandetanib]", "values": [{"measurement": "LD50 intravenous", "setting": "rat; rats, intravenous", "value": "17-41 mg/kg body weight"}]}, {"smiles": "C[C@H]1O[C@@H](O[C@H]2[C@@H](O)C[C@H](O[C@H]3[C@@H](O)C[C@H](O[C@H]4CC[C@@]5(C)[C@H](CC[C@@H]6[C@@H]5CC[C@]5(C)[C@@H](C7=CC(=O)OC7)CC[C@]65O)C4)O[C@@H]3C)O[C@@H]2C)C[C@H](O)[C@@H]1O", "note": "[digitoxin]", "values": [{"measurement": "LD50 intravenous", "setting": "pigeon", "value": 0.32, "unit": "mg/kg"}, {"measurement": "LD50 intravenous", "setting": "frog", "value": 0.73, "unit": "mg/kg"}, {"measurement": "LD50 intravenous", "setting": "mouse; mouse, intravenous injection", "value": 4.1, "unit": "mg/kg"}]}]}
